Experimental findings from US4933365A, “Phospholipase A2 inhibitors” (American Home Products Corporation, priority 1989, dated 1990) are described below.

SMILES strings stand for the structures.

In assay [1] the test system is synthesis of the arachidonic acid cyclooxygenase oxidation product TxB2. The experiment in a line: inhibition of TxB2 synthesis (cyclooxygenase) by rat PMN. Format: cell-based, rat (female Wistar). To be noted: A23187 stimulated rat PMN. Here is the method:
Rat polymorphonuclear leukocytes (PMNs) are obtained from female Wistar rats (150-200 g) which receive an injection of 6% glycogen (10 ml i.p.). Rats are sacrificed 18-24 hours post injection by CO2 asphyxiation and the elicited cells are harvested by peritoneal lavage using physiological saline (0.9% NaCl). The exudate is centrifuged at 400×g for 10 minutes. The supernatant fluid is discarded and the cell pellet is resuspended to concentration of 2.0×10^7 cells/ml in HBSS containing Ca^++ and Mg^++ and 10 μM L-cysteine.
To 1 ml aliquots of cell suspension, test drugs or vehicle are added, then preincubated at 37° C. for 10 minutes. A23187 (1 μM) and [^3 H]-AA (3.0 μCi/ml) are then added and the samples are further incubated for 10 minutes. The reaction is terminated by centrifugation and pelleting cells. Supernatants are then analyzed by HPLC analysis on a 15 cm ×4.6 mm ID Supelcosil LC-18 (Supelco)(3M) column, using a two solvent system at a flow rate of 1.4 ml total flow as follows:
Injections: 150 μl of each supernatant is injected directly onto column and ^3 H arachidonic acid metabolites are monitored using an on-line radioactivity detector (Ramona, IN/US, Fairfield, N.J.).
Co-chromatography with standard [^3 H] leukotriene B4 (LTB4) in medium of stimulated PMN exposed to drug is compared to that found in medium of stimulated cells exposed to no drug, generating percent inhibition.
Results are expressed as percent inhibition at a given compound dose.
In this assay, the procedure of Example 13 is carried out as described. However, in order to determine cyclooxygenase activity, the samples are co-chromatographed with authentic reference [^3 H]--TxB2.
The results are calculated as in Example 13 and present below: […]

The subject of assay [2] is vascular cutaneous permeability induced by snake venom PLA2 (Naja mocambique mocambique PLA2). The experiment in a line: reduction of vascular cutaneous permeability induced by snake venom PLA2. Format: in vivo, guinea pig (male Hartley). To be noted: for % Inhibition: standard drug.
The test system of the next assay is carrageenan paw edema. The experiment in a line: rat carrageenan paw edema. Format: in vivo, rat (male Sprague-Dawley). To be noted: po, 3 h, read-out: Oral ED50 (95% C.L.). Here is the method: The compounds in the scope of the invention are further tested in the rat carrageenan paw edema to determine their ability to inhibit the acute inflammatory response.
This assay is carried out as follows:
[…] male Sprague-Dawley rats, in groups of 6 animals are injected subcutaneously in the right paw with 0.1 ml of 1% carrageenan at zero time. Mercury plethysmographic readings (ml) of the paw made at zero time and 3 hours later. Test compounds are suspended or dissolved in 0.5% methylcellulose and given perorally 1 hour prior to carrageenan administration.
The increase in paw volume (edema in ml.) produced by the carrageenan is measured. Paw edema is calculated (3 hour volume minus zero time volume), and percent inhibition of edema is determined. Unpaired Student's t-test is used to determine statistical significance.
(The carrageenan paw model is a standard test of acute inflammation.)

The subject of assay [3] is oxazolone-induced contact hypersensitivity in the mouse ear. Kind of assay: oxazolone-induced contact hypersensitivity in the mouse ear. To be noted: dosed at 1 mg/ear. Format: in vivo, mouse (female Swiss Webster). Here is the method: The assay of this Example measures the ability of the compound in the scope of the invention to inhibit oxazolone-induced contact hypersensitiveity in the mouse ear.
The assay is carried out as follows:
Female, Swiss Webster mice (8 weeks old) are placed into groups of 6 and the abdominal area of each is shaved. The mice are sensitized to oxazolone (4-ethoxymethylene-2-phenyl-oxazol-5-one) by applying 100 μl of a 2% solution in 95% alcohol directly onto the shaved abdomen using an automatic pipette and rubbing the residual oxaxolone into the skin with a round wooden stick. Six days after sensitization each mouse is challenged by applying 20 μl if a 2% oxazolone solution in 95% alcohol to the right ear (10 μl of alcohol alone to the left ear. Compounds for topical applications are prepared in acetone and administered to the right ear 30 min after challenge or 30 min prior to and 5 h after challenge; acetone (vehicle) is applied to the left ear. Compounds for oral administration are suspended in 0.5 ml of 0.5% methyl cellulose and given ten min prior to challenge. Ear thickness of both ears is measured in mm×10^- 2 at 24 and 48 h after challenge using an Oditest caliper. Edema is calculated by subtracting the left ear thickness from the right ear thickness. Drug effects are determined by calculating the percentage change from control for each time period.

With `CCOC(=O)C1(CCCCCc2ccc(Cl)cc2)CO1` (stereo not drawn) [Example 10, 2-[5-(4-Chlorophenyl)pentyl]-2-oxiranecarboxylic acid ethyl ester], testing at 10 µM in assay [1] gave an inhibition of 4%. In addition, in assay [2], the “% Inhibition, iv at 100 mg/kg” value is on record as 24.1%.
Turning to `COc1ccc2c(c1)c(CC(=O)O)c(C)n2C(=O)c1ccc(Cl)cc1` [Indomethacin], the ED50 – broadly, the dose that gives a 50% effect, or the effect in half of the subjects – in the assay with carrageenan paw edema came out at 3.7 mg/kg. Besides, the % Inhibition (commonly how much of the control response was suppressed) in assay [2] (50 mg/kg p.o.) is 15.0%.
Turning to `COC(=O)C1(C(=O)CCCCOc2ccc(Cl)cc2)CO1` (stereo not drawn) [Example 6A, 2-[5-(4-Chlorophenoxy)-1-oxopentyl]-2-oxiranecarboxylic acid methyl ester], the inhibition (usually the change of the read-out against control, counted positive when it falls) at 10 µM in assay [1] was 30%.
`COC(=O)C1(C(=O)CCCCc2ccccc2)CO1` (stereo not drawn) [Example 9, 2-(5-Phenyl-1-oxopentyl)-2-oxiranecarboxylic acid methyl ester]: the “% Inhibition” value in assay [3] worked out at 22.0%. Besides, the inhibition at 10 µM in assay [1] was determined as 1%.
`NC1=NN(c2cccc(C(F)(F)F)c2)CC1` [BW 755c]: in assay [2] (200 mg/kg p.o.), the “% Inhibition” value is recorded as 65.3%.
Regarding `CN(C)CCC(c1ccc(Cl)cc1)c1ccccn1` (stereo not drawn) [Chlorpheniramine], in assay [2] (2 mg/kg p.o.), the “% Inhibition” value is 45.0%.
As for `COC(=O)C1(C(F)=CCCCOc2ccc(Cl)cc2)CO1` (stereo not drawn) [6 (fluoro-vinyl compound), 2-[5-(4-Chlorophenoxy)-1-fluoro-1-pentenyl]-2-oxiranecarboxylic acid methyl ester], the “% Inhibition, iv at 100 mg/kg” value in assay [2] is 32%.
As for `CC(=O)Oc1ccccc1C(=O)O` [Aspirin], the ED50 with carrageenan paw edema was determined as 145 mg/kg.
For the compound `C[C@@H]1C[C@H]2[C@@H]3CCC4=CC(=O)C=C[C@]4(C)[C@@]3(F)[C@@H](O)C[C@]2(C)[C@@]1(O)C(=O)CO` [Dexamethasone], the “% Inhibition” value in assay [2] (10 mg/kg p.o.) amounted to 49.0%.
